Measured values published in patent US20220306695A1, “COMPSTATIN ANALOGUES AND THEIR MEDICAL USES” (priority 2019, published 2022).
Positions of bridges follow the written chain, without caps; N, C: chain ends. Residues, ends and D or L forms follow the SMILES beside them.

Tested on: classical complement pathway
Assay: In vitro haemolysis assay (inhibition of classical complement pathway)
Type: cell-based, human
Conditions: Table 3; human serum, sensitized sheep red blood cells; read-out: IC50[nM], in vitro analysis of inhibition of hemolysis
Method: Method The in vitro effect of test compounds was assessed by measuring their inhibitory effect of the classical complement pathway in a haemolysis assay. Briefly, test compounds and reference compounds were dissolved in DMSO and diluted in Tris/Casein Assay Buffer (10 mM Tris, 145 mM NaCl, 0.5 mM MgCl2, 0.15 mM CaCl2, and 0.1% W/V Casein, adjusted to pH 7.4) as 9-point serial dilutions in a 96 well plate. Sensitized sheep red blood cells (RBC) coated with rabbit anti-sheep erythrocyte antiserum (Complement Technology, Inc., TX, USA) were washed in Tris/Casein Assay Buffer. 50 μL from each well of diluted compound was added to a 96-well plate containing 50 μL diluted human serum (Complement Technology, Inc., TX, USA) and incubated for 15 minutes at room temperature. The serum dilution factor was optimized for every serum batch to obtain 70-90% of maximal haemolysis using the protocol. Then 50 μL sensitized sheep red blood cells were added to all wells ([…] per well). After 30 minutes of incubation at 37° C. with gentle agitation, the reaction was stopped by addition of 50 μL Tris STOP Buffer per well (10 mM EDTA, 10 mM Tris, 145 mM NaCl adjusted to pH 7.4). The RBCs were then removed by centrifugation and the resulting supernatant measured for hemolysis by absorbance at 405 nm. The response was normalized relative to a positive and negative control (vehicle) to calculate the IC50 from the concentration response curve using the 4-parameter logistic (4PL) nonlinear model for curve fitting.

Structure (SMILES)	IC50
CC[C@H](C)[C@H](NC(C)=O)C(=O)N[C@H]1CSSC[C@@H](C(=O)N[C@H](C(N)=O)[C@@H](C)O)NC(=O)[C@H](CCCNC(=N)N)NC(=O)[C@H](Cc2c[nH]cn2)NC(=O)[C@H](CC(=O)O)NC(=O)CNC(=O)[C@H](Cc2c[nH]c3ccccc23)NC(=O)[C@H](CC(=O)O)NC(=O)[C@H](CCC(N)=O)NC(=O)[C@H](Cc2c[nH]c3ccccc23)NC(=O)[C@H]([C@@H](C)CC)NC1=O [Compound 17] (Ac-ICIWQDWGDHRCT-NH2; disulfide 2-12)	< 100 nM
CC[C@H](C)[C@H](NC(C)=O)C(=O)N[C@H]1CSSC[C@@H](C(=O)N[C@H](C(N)=O)[C@@H](C)O)NC(=O)[C@H](CCCNC(=N)N)NC(=O)[C@H](Cc2c[nH]cn2)NC(=O)[C@H](CCCNC(=N)N)NC(=O)CNC(=O)[C@H](Cc2c[nH]c3ccccc23)NC(=O)[C@H](CC(=O)O)NC(=O)[C@H](CCC(N)=O)NC(=O)[C@H](Cc2c[nH]c3ccccc23)NC(=O)[C@H]([C@@H](C)CC)NC1=O [Compound 18] (Ac-ICIWQDWGRHRCT-NH2; disulfide 2-12)	< 100 nM
CC[C@H](C)[C@H](NC(C)=O)C(=O)N[C@H]1CSSC[C@@H](C(=O)N[C@H](C(N)=O)[C@@H](C)O)NC(=O)[C@H](CO)NC(=O)[C@H](Cc2c[nH]cn2)NC(=O)[C@H](C)NC(=O)CNC(=O)[C@H](Cc2c[nH]c3ccccc23)NC(=O)[C@H](CC(=O)O)NC(=O)[C@H](CCC(N)=O)NC(=O)[C@H](Cc2c[nH]c3ccccc23)NC(=O)[C@H]([C@@H](C)CC)NC1=O [Compound 19] (Ac-ICIWQDWGAHSCT-NH2; disulfide 2-12)	< 250 nM
CC[C@H](C)[C@H](NC(C)=O)C(=O)N[C@H]1CSSC[C@@H](C(=O)N[C@H](C(N)=O)[C@@H](C)O)NC(=O)[C@H](CO)NC(=O)[C@H](Cc2c[nH]cn2)NC(=O)[C@H](CCC(=O)O)NC(=O)CNC(=O)[C@H](Cc2c[nH]c3ccccc23)NC(=O)[C@H](CC(=O)O)NC(=O)[C@H](CCC(N)=O)NC(=O)[C@H](Cc2c[nH]c3ccccc23)NC(=O)[C@H]([C@@H](C)CC)NC1=O [Compound 20] (Ac-ICIWQDWGEHSCT-NH2; disulfide 2-12)	< 100 nM
CC[C@H](C)[C@@H]1NC(=O)[C@@H](NC(=O)[C@H](Cc2ccccc2)NC(C)=O)CSSC[C@@H](C(=O)N[C@H](C(N)=O)[C@@H](C)O)NC(=O)[C@H](CCCNC(=N)N)NC(=O)[C@H](Cc2c[nH]cn2)NC(=O)[C@H](CCC(=O)O)NC(=O)CNC(=O)[C@H](Cc2c[nH]c3ccccc23)NC(=O)[C@H](CC(=O)O)NC(=O)[C@H](CCC(N)=O)NC(=O)[C@H](Cc2c[nH]c3ccccc23)NC1=O [Compound 23] (Ac-FCIWQDWGEHRCT-NH2; disulfide 2-12)	< 100 nM
CC[C@H](C)[C@H](NC(C)=O)C(=O)N[C@H]1CSSC[C@@H](C(=O)N[C@H](C(=O)N[C@@H](CCC(=O)O)C(N)=O)[C@@H](C)O)NC(=O)[C@H](CCCNC(=N)N)NC(=O)[C@H](Cc2c[nH]cn2)NC(=O)[C@H](CCC(=O)O)NC(=O)CNC(=O)[C@H](Cc2c[nH]c3ccccc23)NC(=O)[C@H](CC(=O)O)NC(=O)[C@H](CCC(N)=O)NC(=O)[C@H](Cc2c[nH]c3ccccc23)NC(=O)[C@H]([C@@H](C)CC)NC1=O [Compound 26] (Ac-ICIWQDWGEHRCTE-NH2; disulfide 2-12)	< 100 nM
CC[C@H](C)[C@H](NC(=O)[C@H](C)NC(=O)[C@H](CO)NC(=O)CNC(=O)[C@H](CCC(=O)O)NC(C)=O)C(=O)N[C@H]1CSSC[C@@H](C(=O)N[C@H](C(N)=O)[C@@H](C)O)NC(=O)[C@H](CCCNC(=N)N)NC(=O)[C@H](Cc2c[nH]cn2)NC(=O)[C@H](CCC(=O)O)NC(=O)CNC(=O)[C@H](Cc2c[nH]c3ccccc23)NC(=O)[C@H](CC(=O)O)NC(=O)[C@H](CCC(N)=O)NC(=O)[C@H](Cc2c[nH]c3ccccc23)NC(=O)[C@H]([C@@H](C)CC)NC1=O [Compound 29] (Ac-EGSAICIWQDWGEHRCT-NH2; disulfide 6-16)	< 100 nM
CC[C@H](C)[C@@H]1NC(=O)[C@@H](NC(=O)[C@@H](NC(=O)[C@H](CCC(=O)O)NC(C)=O)[C@@H](C)CC)CSSC[C@@H](C(=O)N[C@H](C(=O)N[C@@H](CCC(=O)O)C(=O)NCC(=O)N[C@@H](CCC(=O)O)C(N)=O)[C@@H](C)O)NC(=O)[C@H](CCCNC(=N)N)NC(=O)[C@H](Cc2c[nH]cn2)NC(=O)[C@H](CCC(=O)O)NC(=O)CNC(=O)[C@H](Cc2c[nH]c3ccccc23)NC(=O)[C@H](CC(=O)O)NC(=O)[C@H](CCC(N)=O)NC(=O)[C@H](Cc2c[nH]c3ccccc23)NC1=O [Compound 34] (Ac-EICIWQDWGEHRCTEGE-NH2; disulfide 3-13)	< 250 nM
CC[C@H](C)[C@@H]1NC(=O)[C@@H](NC(=O)[C@@H](NC(=O)[C@H](CCC(=O)O)NC(=O)CNC(=O)[C@H](CCC(=O)O)NC(C)=O)[C@@H](C)CC)CSSC[C@@H](C(=O)N[C@@H](CCC(=O)O)C(=O)NCC(=O)N[C@@H](CCC(=O)O)C(N)=O)NC(=O)[C@H](CCCNC(=N)N)NC(=O)[C@H](Cc2c[nH]cn2)NC(=O)[C@H](CCC(=O)O)NC(=O)CNC(=O)[C@H](Cc2c[nH]c3ccccc23)NC(=O)[C@H](CC(=O)O)NC(=O)[C@H](CCC(N)=O)NC(=O)[C@H](Cc2c[nH]c3ccccc23)NC1=O [Compound 35] (Ac-EGEICIWQDWGEHRCEGE-NH2; disulfide 5-15)	< 500 nM
CC[C@H](C)[C@@H]1NC(=O)[C@@H](NC(=O)[C@@H](NC(=O)[C@H](CCCCN)NC(=O)[C@H](CCC(=O)O)NC(=O)[C@H](CCCCN)NC(C)=O)[C@@H](C)CC)CSSC[C@@H](C(=O)N[C@H](C(=O)N[C@@H](CCC(=O)O)C(=O)N[C@@H](CCCCN)C(=O)N[C@@H](CCC(=O)O)C(N)=O)[C@@H](C)O)NC(=O)[C@H](CCCNC(=N)N)NC(=O)[C@H](Cc2c[nH]cn2)NC(=O)[C@H](CCC(=O)O)NC(=O)CNC(=O)[C@H](Cc2c[nH]c3ccccc23)NC(=O)[C@H](CC(=O)O)NC(=O)[C@H](CCC(N)=O)NC(=O)[C@H](Cc2c[nH]c3ccccc23)NC1=O [Compound 37] (Ac-KEKICIWQDWGEHRCTEKE-NH2; disulfide 5-15)	< 250 nM
CC[C@H](C)[C@H](NC(=O)CNC(=O)[C@H](CCCCN)NC(=O)[C@H](CCC(=O)O)NC(C)=O)C(=O)N[C@H]1CSSC[C@@H](C(=O)N[C@H](C(=O)N[C@@H](CCC(=O)O)C(=O)N[C@@H](CCCCN)C(=O)N2CCC[C@H]2C(N)=O)[C@@H](C)O)NC(=O)[C@H](CCCNC(=N)N)NC(=O)[C@H](Cc2c[nH]cn2)NC(=O)[C@H](CCC(=O)O)NC(=O)CNC(=O)[C@H](Cc2c[nH]c3ccccc23)NC(=O)[C@H](CC(=O)O)NC(=O)[C@H](CCC(N)=O)NC(=O)[C@H](Cc2c[nH]c3ccccc23)NC(=O)[C@H]([C@@H](C)CC)NC1=O [Compound 38] (Ac-EKGICIWQDWGEHRCTEKP-NH2; disulfide 5-15)	< 250 nM
CC[C@H](C)[C@H](NC(C)=O)C(=O)N[C@H]1CSSC[C@@H](C(=O)N[C@H](C(=O)N[C@@H](CCC(=O)O)C(=O)NCC(=O)N[C@@H](CCCCN)C(N)=O)[C@@H](C)O)NC(=O)[C@H](CCCNC(=N)N)NC(=O)[C@H](Cc2c[nH]cn2)NC(=O)[C@H](CCC(=O)O)NC(=O)CNC(=O)[C@H](Cc2c[nH]c3ccccc23)NC(=O)[C@H](CC(=O)O)NC(=O)[C@H](CCC(N)=O)NC(=O)[C@H](Cc2c[nH]c3ccccc23)NC(=O)[C@H]([C@@H](C)CC)NC1=O [Compound 39] (Ac-ICIWQDWGEHRCTEGK-NH2; disulfide 2-12)	< 100 nM

Same assay, conditions: Table 4; valine 3 versus isoleucine 3 pairs; read-out: CP hemolysis IC50

Structure (SMILES)	IC50
CC[C@H](C)[C@H](NC(C)=O)C(=O)N[C@H]1CSSC[C@@H](C(=O)N[C@H](C(N)=O)[C@@H](C)O)NC(=O)[C@H](CO)NC(=O)[C@H](Cc2c[nH]cn2)NC(=O)[C@H](C)NC(=O)CNC(=O)[C@H](Cc2c[nH]c3ccccc23)NC(=O)[C@H](CC(=O)O)NC(=O)[C@H](CCC(N)=O)NC(=O)[C@H](Cc2c[nH]c3ccccc23)NC(=O)[C@H]([C@@H](C)CC)NC1=O [Compound 19] (Ac-ICIWQDWGAHSCT-NH2; disulfide 2-12)	140 nM
CC[C@H](C)[C@H](NC(C)=O)C(=O)N[C@H]1CSSC[C@@H](C(=O)N[C@H](C(N)=O)[C@@H](C)O)NC(=O)[C@H](CO)NC(=O)[C@H](Cc2c[nH]cn2)NC(=O)[C@H](CCC(=O)O)NC(=O)CNC(=O)[C@H](Cc2c[nH]c3ccccc23)NC(=O)[C@H](CC(=O)O)NC(=O)[C@H](CCC(N)=O)NC(=O)[C@H](Cc2c[nH]c3ccccc23)NC(=O)[C@H]([C@@H](C)CC)NC1=O [Compound 20] (Ac-ICIWQDWGEHSCT-NH2; disulfide 2-12)	59 nM
